The values that follow come from patent US20160311831A1, “Imidazotriazinones as PDE1 Inhibitors” (H. Lundbeck A/S, priority 2015, published 2016).

Holding throughout (assay type): biochemical
The target in one experiment is PDE1A (Homo sapiens, UniProt P54750). The experiment can be described thus: PDE1 inhibition assay (PDE1A), SPA with tritium labelled cAMP. Conditions: 15 nM tritium labelled cAMP, 1 hr at room temperature. The protocol: (§1) PDE1A, PDE1B and PDE1C assays were performed as follows: the assays was performed in 60 μL samples containing a fixed amount of the PDE1 enzym1 (sufficient to convert 20-25% of the cyclic nucleotide substrate), a buffer (50 mM HEPES pH 7.6; 10 mM MgCl2; 0.02% Tween20), 0.1 mg/mL BSA, 15 nM tritium labelled cAMP and varying amounts of inhibitors. Reactions were initiated by addition of the cyclic nucleotide substrate, and reactions were allowed to proceed for 1 hr at room temperature before being terminated through mixing with 20 μL (0.2 mg) yttrium silicate SPA beads (PerkinElmer). The beads were allowed to settle for 1 hr in the dark before the plates were counted in a Wallac 1450 Microbeta counter. The measured signals were converted to activity relative to an uninhibited control (100%) and IC50 values were calculated using XIFit (model 205, IDBS).

The target in another experiment is PDE1B (Homo sapiens, UniProt Q01064). In words: PDE1 inhibition assay (PDE1B), SPA with tritium labelled cAMP. The conditions noted are these: 15 nM tritium labelled cAMP, 1 hr at room temperature. The method, then: as §1
For the next experiment, the target named is PDE1C (Homo sapiens, UniProt Q14123). In words: PDE1 inhibition assay (PDE1C), SPA with tritium labelled cAMP. Conditions: 15 nM tritium labelled cAMP, 1 hr at room temperature. The method, then:
as §1

The target of a further experiment is PDE9 (Homo sapiens, UniProt O76083). The experiment can be described thus: PDE9 inhibition assay, SPA with 3H-cAMP. Conditions: compound at 10 microM; 10 nM 3H-cAMP, 1 hr incubation. The protocol:
A PDE9 assay may for example, be performed as follows: The assay is performed in 60 μL samples containing a fixed amount of the relevant PDE enzyme (sufficient to convert 20-25% of the cyclic nucleotide substrate), a buffer (50 mM HEPES7.6; 10 mM MgCl2; 0.02% Tween20), 0.1 mg/mL BSA, 225 pCi of ^3H-labelled cyclic nucleotide substrate, tritium labeled cAMP to a final concentration of 5 nM and varying amounts of inhibitors. Reactions are initiated by addition of the cyclic nucleotide substrate, and reactions are allowed to proceed for one hr at room temperature before being terminated through mixing with 15 μL 8 mg/mL yttrium silicate SPA beads (Amersham). The beads are allowed to settle for one hr in the dark before the plates are counted in a Wallac 1450 Microbeta counter. The measured signal can be converted to activity relative to an uninhibited control (100%) and IC50 values can be calculated using the Xlfit extension to EXCEL.
In the context of the present invention the assay was performed in 60 uL assay buffer (50 mM HEPES pH 7.6; 10 mM MgCl2; 0.02% Tween20) containing enough PDE9 to convert 20-25% of 10 nM ^3H-cAMP and varying amounts of inhibitors. Following a 1 hr incubation the reactions were terminated by addition of 15 uL 8 mg/mL yttrium silicate SPA beads (Amersham). The beads were allowed to settle for one hr in the dark before the plates were counted in a Wallac 1450 Microbeta counter.

PDE1A, sequence (P54750 whole entry): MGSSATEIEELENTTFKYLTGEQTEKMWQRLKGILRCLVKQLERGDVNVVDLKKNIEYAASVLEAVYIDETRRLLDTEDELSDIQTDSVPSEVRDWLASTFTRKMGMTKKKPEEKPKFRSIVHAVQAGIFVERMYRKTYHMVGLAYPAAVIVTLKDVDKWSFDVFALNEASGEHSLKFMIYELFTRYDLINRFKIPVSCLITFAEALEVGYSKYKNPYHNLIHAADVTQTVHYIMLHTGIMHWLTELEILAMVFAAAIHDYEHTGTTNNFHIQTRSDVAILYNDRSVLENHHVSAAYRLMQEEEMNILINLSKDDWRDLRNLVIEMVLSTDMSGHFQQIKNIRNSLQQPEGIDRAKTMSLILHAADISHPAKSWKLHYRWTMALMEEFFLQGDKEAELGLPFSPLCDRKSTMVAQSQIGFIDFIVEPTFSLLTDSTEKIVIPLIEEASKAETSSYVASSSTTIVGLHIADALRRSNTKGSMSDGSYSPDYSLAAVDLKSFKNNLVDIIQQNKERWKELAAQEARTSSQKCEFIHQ
PDE1C, sequence (Q14123 whole entry): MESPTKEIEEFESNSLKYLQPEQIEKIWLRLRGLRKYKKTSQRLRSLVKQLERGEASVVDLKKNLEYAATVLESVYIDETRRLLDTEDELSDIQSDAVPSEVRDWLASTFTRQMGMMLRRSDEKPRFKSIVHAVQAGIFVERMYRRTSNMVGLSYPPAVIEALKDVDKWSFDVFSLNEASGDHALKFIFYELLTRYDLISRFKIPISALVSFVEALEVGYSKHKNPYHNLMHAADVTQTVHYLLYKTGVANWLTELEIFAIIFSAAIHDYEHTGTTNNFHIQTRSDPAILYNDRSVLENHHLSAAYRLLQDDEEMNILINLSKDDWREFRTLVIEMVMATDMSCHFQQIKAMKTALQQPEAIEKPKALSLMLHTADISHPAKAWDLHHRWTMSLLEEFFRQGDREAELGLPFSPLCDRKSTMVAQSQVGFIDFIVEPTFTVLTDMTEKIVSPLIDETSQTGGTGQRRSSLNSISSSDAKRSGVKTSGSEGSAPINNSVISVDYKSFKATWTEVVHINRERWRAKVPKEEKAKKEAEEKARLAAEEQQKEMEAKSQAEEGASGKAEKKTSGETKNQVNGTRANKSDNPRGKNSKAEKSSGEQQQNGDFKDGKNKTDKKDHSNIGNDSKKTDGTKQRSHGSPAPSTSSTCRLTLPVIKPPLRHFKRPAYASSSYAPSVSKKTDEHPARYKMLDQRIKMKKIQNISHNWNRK
PDE1B, sequence (Q01064 whole entry): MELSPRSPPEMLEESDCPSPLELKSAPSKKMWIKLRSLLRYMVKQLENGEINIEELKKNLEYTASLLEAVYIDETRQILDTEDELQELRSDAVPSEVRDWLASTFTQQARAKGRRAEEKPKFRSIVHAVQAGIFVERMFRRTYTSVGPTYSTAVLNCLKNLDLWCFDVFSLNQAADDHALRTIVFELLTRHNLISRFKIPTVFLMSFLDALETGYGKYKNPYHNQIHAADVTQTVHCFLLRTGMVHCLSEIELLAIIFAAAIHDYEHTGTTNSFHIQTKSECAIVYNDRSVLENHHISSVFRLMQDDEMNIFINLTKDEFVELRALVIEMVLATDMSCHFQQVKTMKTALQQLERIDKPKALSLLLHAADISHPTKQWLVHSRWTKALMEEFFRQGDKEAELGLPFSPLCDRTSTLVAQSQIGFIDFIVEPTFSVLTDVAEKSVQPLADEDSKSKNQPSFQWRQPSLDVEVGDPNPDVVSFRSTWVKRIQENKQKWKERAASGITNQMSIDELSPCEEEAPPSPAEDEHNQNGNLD
PDE9, sequence (O76083 whole entry): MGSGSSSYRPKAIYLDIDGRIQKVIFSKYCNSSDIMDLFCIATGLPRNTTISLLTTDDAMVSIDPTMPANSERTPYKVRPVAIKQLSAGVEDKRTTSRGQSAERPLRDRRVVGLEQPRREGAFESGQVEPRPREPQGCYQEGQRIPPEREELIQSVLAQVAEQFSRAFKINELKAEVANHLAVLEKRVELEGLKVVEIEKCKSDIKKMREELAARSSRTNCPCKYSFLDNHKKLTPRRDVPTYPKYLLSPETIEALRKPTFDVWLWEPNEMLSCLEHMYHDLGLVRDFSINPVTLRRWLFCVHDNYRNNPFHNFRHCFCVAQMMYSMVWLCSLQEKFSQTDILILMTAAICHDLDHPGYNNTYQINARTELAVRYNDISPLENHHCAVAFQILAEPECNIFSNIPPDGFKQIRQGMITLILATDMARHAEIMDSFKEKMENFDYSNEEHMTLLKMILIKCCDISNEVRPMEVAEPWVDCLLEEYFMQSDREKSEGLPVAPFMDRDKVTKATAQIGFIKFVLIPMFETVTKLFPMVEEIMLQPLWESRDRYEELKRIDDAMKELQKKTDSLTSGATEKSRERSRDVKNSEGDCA

Take `Cc1ccc(Cc2nn3c(C4CCOCC4)ncc3c(=O)n2CC2CCC(C)CC2)cc1` (single isomer, unassigned) [11 Stereoisomer 1]: the IC50 on PDE1A was determined as 43 nM; on PDE1B, 33 nM; at PDE1C, 69 nM. Also, at PDE9, the “% inhibition of PDE9 at 10 microM” value is on record as −9%.
The like results for `Cc1ccc(Cc2nn3c(C4CCOCC4)ncc3c(=O)n2CC2CCC(C)CC2)cc1` (single isomer, unassigned) [11 Stereoisomer 2] were, in that order, 8 nM, 10 nM, 5 nM and 15%.
On to `Cc1ccc(Cc2nn3c(C4CCOCC4)ncc3c(=O)n2CC2CCOC2)cc1` (single isomer, unassigned) [12 Stereoisomer 1], for which the IC50 on PDE1B was 258 nM; against PDE1C it was 105 nM. At PDE9, the “% inhibition of PDE9 at 10 microM” value worked out at 3%.
Regarding `Cc1ccc(Cc2nn3c(C4CCOCC4)ncc3c(=O)n2CC2CCOC2)cc1` (single isomer, unassigned) [12 Stereoisomer 2], the IC50 turned out to be 100 nM on PDE1A, 67 nM at PDE1B and 151 nM at PDE1C. Moreover, on PDE9, the “% inhibition of PDE9 at 10 microM” value is on record as 7%.
`Cc1nn2c(C3CCOCC3)ncc2c(=O)n1CC1CCCCC1` [Example 1, 3-(Cyclohexylmethyl)-2-methyl-7-(tetrahydro-2H-pyran-4-yl)imidazo[5,1-f][1,2,4]triazin-4(3H)-one]: the IC50 on PDE1A worked out at 15 nM; against PDE1B it was 30 nM; against PDE1C, 9 nM. The inhibition at 10 µM on PDE9 is 26%.
For the compound `Cc1ccc(Cc2nn3c(C4CCOCC4)ncc3c(=O)n2C)cc1` [Example 2, 3-Methyl-2-(4-methylbenzyl)-7-(tetrahydro-2H-pyran-4-yl)imidazo[5,1-f][1,2,4]triazin-4(3H)-one], the values for the IC50 on PDE1A, against PDE1B and against PDE1C were 732 nM, 258 nM and 984 nM, respectively. Moreover, the inhibition at 10 µM against PDE9 is 4%.
In the case of `CCn1c(Cc2ccc(C)cc2)nn2c(C3CCOCC3)ncc2c1=O` [Example 3, 3-Ethyl-2-(4-methylbenzyl)-7-(tetrahydro-2H-pyran-4-yl)imidazo[5,1-f][1,2,4]triazin-4(3H)-one], the figures for the IC50 against PDE1A, against PDE1B and against PDE1C were 180 nM, 79 nM and 279 nM, respectively. At PDE9, the inhibition at 10 µM is 15%.
Take `CCCn1c(Cc2ccc(C)cc2)nn2c(C3CCOCC3)ncc2c1=O` [Example 4, 2-(4-Methylbenzyl)-3-propyl-7-(tetrahydro-2H-pyran-4-yl)imidazo[5,1-f][1,2,4]triazin-4(3H)-one]: the 50% inhibitory concentration (IC50) against PDE1A worked out at 83 nM; at PDE1B it was 40 nM; against PDE1C, 61 nM. Further, on PDE9, the inhibition at 10 µM was 9%.
The like results for `Cc1ccc(Cc2nn3c(C4CCOCC4)ncc3c(=O)n2CC(C)C)cc1` [Example 5, 3-isobutyl-2-(4-methylbenzyl)-7-(tetrahydro-2H-pyran-4-yl)imidazo[5,1-f][1,2,4]triazin-4(3H)-one] were, in that order, 47 nM, 52 nM, 38 nM and -3%.
On the same counts, the results for `Cc1ccc(Cc2nn3c(C4CCOCC4)ncc3c(=O)n2CC2CCCC2)cc1` [Example 6, 3-(Cyclopentylmethyl)-2-(4-methylbenzyl)-7-(tetrahydro-2H-pyran-4-yl)imidazo[5,1-f][1,2,4]triazin-4(3H)-one] are 29 nM, 63 nM, 4 nM and 2%.
As for `Cc1ccc(Cc2nn3c(C4CCOCC4)ncc3c(=O)n2CC2CCCCC2)cc1` [Example 7, 3-(Cyclohexylmethyl)-2-(4-methylbenzyl)-7-(tetrahydro-2H-pyran-4-yl)imidazo[5,1-f][1,2,4]triazin-4(3H)-one], the figures for the 50% inhibitory concentration (IC50) against PDE1A, on PDE1B and against PDE1C were 40 nM, 26 nM and 11 nM, respectively. Besides, at PDE9, the inhibition at 10 µM turned out to be 11%.
The like results for `Cc1ccc(Cc2nn3c(C4CCOCC4)ncc3c(=O)n2CC2CC2)cc1` [Example 8, 3-(Cyclopropylmethyl)-2-(4-methylbenzyl)-7-(tetrahydro-2H-pyran-4-yl)imidazo[5,1-f][1,2,4]triazin-4(3H)-one] were, in that order, 63 nM, 103 nM, 78 nM and 9%.
In the case of `Cc1ccc(Cc2nn3c(C4CCOCC4)ncc3c(=O)n2CC2CCOCC2)cc1` [Example 9, 2-(4-Methylbenzyl)-7-(tetrahydro-2H-pyran-4-yl)-3-((tetrahydro-2H-pyran-4-yl)methyl)imidazo[5,1-f][1,2,4]triazin-4(3H)-one], the values for the IC50 at PDE1A, against PDE1B and against PDE1C were 583 nM, 364 nM and 23 nM, respectively. At PDE9, the inhibition at 10 µM amounted to 12%.
On the same counts, the results for `Cc1ccc(Cc2nn3c(C4CCOCC4)ncc3c(=O)n2CC2CCC2)cc1` [Example 10, 3-(Cyclobutylmethyl)-2-(4-methylbenzyl)-7-(tetrahydro-2H-pyran-4-yl)imidazo[5,1-f][1,2,4]triazin-4(3H)-one] are 245 nM, 103 nM, 62 nM and -11%.
Turning to `Cc1nn2c(C3CCOCC3)ncc2c(=O)n1Cc1cccc(F)c1` [Example 13, 3-(3-Fluorobenzyl)-2-methyl-7-(tetrahydro-2H-pyran-4-yl)imidazo[5,1-f][1,2,4]triazin-4(3H)-one], the IC50 on PDE1A worked out at 127 nM; on PDE1B it was 258 nM; against PDE1C, 29 nM. Further, at PDE9, the inhibition at 10 µM was -4%.
As for `Cc1nn2c(C3CCOCC3)ncc2c(=O)n1Cc1ccc(F)cc1` [Example 14, 3-(4-Fluorobenzyl)-2-methyl-7-(tetrahydro-2H-pyran-4-yl)imidazo[5,1-f][1,2,4]triazin-4(3H)-one], the results for the IC50 at PDE1A, at PDE1B and against PDE1C were 77 nM, 134 nM and 35 nM, respectively. In addition, at PDE9, the inhibition at 10 µM was 18%.
On the same counts, the results for `Cc1nn2c(C3CCOCC3)ncc2c(=O)n1Cc1ccccc1` [Example 15, 3-Benzyl-2-methyl-7-(tetrahydro-2H-pyran-4-yl)imidazo[5,1-f][1,2,4]triazin-4(3H)-one] are 70 nM, 162 nM, 17 nM and -13%.
In the case of `Cc1nn2c(C3CCOCC3)ncc2c(=O)n1Cc1ccccc1Cl` [Example 16, 3-(2-Chlorobenzyl)-2-methyl-7-(tetrahydro-2H-pyran-4-yl)imidazo[5,1-f][1,2,4]triazin-4(3H)-one], the figures for the IC50 against PDE1A, at PDE1B and on PDE1C were 118 nM, 220 nM and 20 nM, respectively. For the same compound, the inhibition at 10 µM against PDE9 is 11%.
Take `Cc1nn2c(C3CCOCC3)ncc2c(=O)n1Cc1cccc(Cl)c1` [Example 17, 3-(3-Chlorobenzyl)-2-methyl-7-(tetrahydro-2H-pyran-4-yl)imidazo[5,1-f][1,2,4]triazin-4(3H)-one]: the IC50 at PDE1A came to 63 nM; on PDE1B it was 159 nM; against PDE1C it was 14 nM. In addition, the inhibition at 10 µM at PDE9 amounted to 5%.
On the same counts, the results for `Cc1cccc(Cn2c(C)nn3c(C4CCOCC4)ncc3c2=O)c1` [Example 18, 2-Methyl-3-(3-methylbenzyl)-7-(tetrahydro-2H-pyran-4-yl)imidazo[5,1-f][1,2,4]triazin-4(3H)-one] are 265 nM, 188 nM, 20 nM and -30%.
The compound `O=c1c2cnc(C3CCOCC3)n2ncn1Cc1cccc(F)c1` [Example 27, 3-(3-Fluorobenzyl)-7-(tetrahydro-2H-pyran-4-yl)imidazo[5,1-f][1,2,4]triazin-4(3H)-one] yielded an IC50 against PDE1C of 436 nM. Besides, the inhibition at 10 µM against PDE9 came out at 17%.
As to `O=c1c2cnc(C3CCOCC3)n2ncn1CC1CCCC1` [Example 28, 3-(Cyclopentylmethyl)-7-(tetrahydro-2H-pyran-4-yl)imidazo[5,1-f][1,2,4]triazin-4(3H)-one], the IC50 on PDE1C stood at 86 nM. Moreover, at PDE9, the inhibition at 10 µM was found to be 10%.

The IC50 is the concentration that inhibits the measured activity by half. Read a high IC50 as weaker potency. In general, inhibition refers to the change of the read-out against control, counted positive when it falls.
